Key:
[1] = system: scratched monolayers of HaCaT cells (human keratinocyte cell line); test: In vitro wound healing model (scratched HaCaT monolayer); format: cell-based; conditions: AG 20 μM, 15 min pre-treatment, no bacterial extract, 20 hours
Protocol: The inventor has evaluated the ability of extracts obtained from selected bacterial strains to influence wound re-epithelialization using an in vitro artificial wound model. The rate of closure of the scratched monolayer in untreated cells and in cells treated with each bacterial extract at the concentration of 50 μg/ml is shown and evaluated through the observation of the repopulation of the area between the wound edges at different time points after the wound generation. In order to quantitatively analyze the effects of the bacterial extracts on the closure of the wound area, images obtained by using an inverted phase contrast microscope at 0, 20, 28 and 45 hours after the scratch were acquired and expressed as a percentage of closure by using an automatical calculation system to evaluate the percentage of area occupied by said cells with respect to the total surface area analyzed. […] The results expressed as percentages of relative re-epithelialization (mean±SEM from three independent experiments conducted in duplicate) as well as the images representing microscopic observations of scratched monolayers are shown in FIGS. 1A and 1B respectively.
The HaCaT cell line of spontaneously immortalized human keratinocytes was purchased from Cell Lines Service GmbH (Eppelheim, Germany). […] Untreated cells were also analysed and used as negative controls. […]

iNOS = test: Nitrite levels assay (Griess) in culture medium of scratched HaCaT monolayers; format: cell-based, human; conditions: AG 20 μM, 15 min pre-treatment, no bacterial extract, 28 hours
Protocol: The scratched monolayers of HaCaT cells were incubated with or without AG at the concentration of 20 μM for 15 minutes before treatment with the bacterial extracts. Nitrite levels in the culture medium were analyzed by Griess reagent after 28 hours. Data shown are expressed as the mean±SEM of three independent experiments conducted in duplicate. The two-way analysis of variance followed by the Bonferroni's post-hoc test was used to assess the presence of statistically significant differences between the data groups: *P<0.05, **P<0.01, ****P<0.0001 with respect to the control (untreated). #P<0.05, ##P<0.01, ###P<0.001, ####P<0.0001 with respect to each corresponding culture without AG. The ability of bacterial extracts to regulate iNOS was further analyzed by measuring the nitrite levels in supernatants of scratched monolayers of HaCaT cells pre-treated with AG, a selective iNOS inhibitor, or not treated with such inhibitor (known from T. P. Misko et al., Eur. J. Pharmacol, 1993, 233:119-125). NO production was indirectly evaluated with the use of the Griess method by measuring nitrite levels using nitrate reductase and the Griess reaction based on a colorimetric assay. […] Absorbance was measured by spectrophotometric reading at 550 nm using a microplate reader (Bio-Rad Hercules, California, USA). […]

[2] = Clinical course of diabetes ulcers and toe amputation wound in a patient (Example 1); format: in vivo, human; conditions: 500 mg orally every 12 hours, four weeks
From the text: The probiotic formulation was a composition comprising Lactobacillus plantarum NCIMB 43029, Lactobacillus acidophilus NCIMB 43030 and the known Streptococcus thermophilus (SEQ ID NO: 10). 0.5 g of composition was applied once daily.
The use of the probiotic formulation was discontinued on day 60, 24 days after treatment.

HaCaT keratinocytes = test: Trypan blue dye exclusion test of HaCaT viability; format: cell-based, human; conditions: 0.1%; positive control; P≤0.01
Protocol: The HaCaT cell line of spontaneously immortalized human keratinocytes was purchased from Cell Lines Service GmbH (Eppelheim, Germany). HaCaT cells were cultured in DMEM supplemented with 10% (v/v) fetal calf serum (FCS), 2 mM L-glutamine, 100 U/ml penicillin and 100 μg/ml streptomycin (Euro Clone, West York, UK). The culture conditions were kept constantly at 37° C. in a humidified atmosphere with 5% CO2. After reaching 80% confluency, cells were seeded, as specified below, in 6- or 12-well plates for sterile cell cultures (Becton Dickinson, San José, CA) at the concentration of 18,000 cells/cm^2. Non-adherent cells were removed by gentle washing in phosphate buffer (PBS, pH=7.4). Cells grown in a 12-well plate were collected at 20, 28 and 45 hours and live cells were counted with the trypan blue dye exclusion test (Euro Clone, West York, UK). […] Untreated cells were also analysed and used as negative controls. The cells were transferred to a Bürker counting chamber and counted under a microscope Eclipse 50i (Nikon Corporation, Japan). For the selection of suitable concentrations of bacterial extract expressed as μg protein/ml, the viability of the HaCaT keratinocytes was analyzed using the trypan blue exclusion test. […]

## N=C(N)NN [AG, aminoguanidine]
[1]
  re-epithelialization (repairing) of the control monolayer: strong effect on the physiological repairing of the control monolayer
iNOS
  nitrite production induced by scratching the control monolayer: significantly prevented the increase in nitrite production

## CC1(C)S[C@@H]2[C@H](NC(=O)[C@H](N)c3ccc(O)cc3)C(=O)N2[C@H]1C(=O)O [amoxicillin]
[2]
  clinical picture of the wounds (wound exudate): worsening clinical picture

## Triton X
HaCaT keratinocytes
  cell viability: significant reduction
